Measured values: US9255101B2 (BIOPROJECT, priority 2012, dated 2016)
Structures can show the parent of a compound that is named as a salt.

target: human H4 receptor (Homo sapiens, UniProt Q9H3N8); experiment: biochemical
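Also: radioligand displacement of a [3H]-labelled ligand from membranes of CHO cells stably expressing human H4 receptor, bound radioactivity counted on filters by liquid scintillation.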

human H4 receptor, sequence (Q9H3N8 whole entry): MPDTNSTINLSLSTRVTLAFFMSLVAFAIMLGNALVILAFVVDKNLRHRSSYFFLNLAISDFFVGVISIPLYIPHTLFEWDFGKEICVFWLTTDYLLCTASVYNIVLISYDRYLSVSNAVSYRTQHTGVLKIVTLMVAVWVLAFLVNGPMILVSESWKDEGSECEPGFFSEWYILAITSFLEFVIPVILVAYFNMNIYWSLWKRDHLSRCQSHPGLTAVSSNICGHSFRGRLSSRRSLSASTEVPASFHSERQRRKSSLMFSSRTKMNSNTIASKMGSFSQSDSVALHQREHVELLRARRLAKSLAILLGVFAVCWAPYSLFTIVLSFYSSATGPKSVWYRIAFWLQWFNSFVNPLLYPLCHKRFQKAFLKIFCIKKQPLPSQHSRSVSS

Structure (SMILES) | Ki
CN1CCC(OC2c3ccccc3CCn3cc(-c4ccc(CN5C(=O)OC(C)(C)C5=O)cc4)nc32)CC1 (stereo not shown) [Example 198, 5,5-dimethyl-3-{4-[4-(1-methylpiperidin-4-yloxy)-9,10-dihydro-4H-3,10a-diaza-benzo[f]azulen-2-yl]benzyl}-oxazolidine-2,4-dione] | < 0.3 µM
CN1CCC(OC2c3cccc(F)c3CCn3cc(-c4ccccc4)nc32)CC1 (stereo not shown) [Example 107, 8-fluoro-4-(1-methylpiperidin-4-yloxy)-2-phenyl-9,10-dihydro-4H-3,10a-diaza-benzo[f]azulene] | < 1 µM
CN1CCC(OC2c3ccccc3CCn3cc(SC4CCN(C(=O)OC(C)(C)C)CC4)nc32)CC1 (stereo not shown) [Example 114, 4-[4-(1-methylpiperidin-4-yloxy)-9,10-dihydro-4H-3,10a-diaza-benzo[f]azulen-2-ylsulfanyl]-piperidine-1-carboxylic acid tert-butyl ester] | < 0.3 µM
Cc1ccc(-c2cn3c(n2)C(OC2CCN(C)CC2)c2ccccc2CC3)c(C)c1 (stereo not shown) [Example 61, 2-(2,4-dimethylphenyl)-4-(1-methylpiperidin-4-yloxy)-9,10-dihydro-4H-3,10a-diaza-benzo[f]azulene] | < 0.3 µM
CN1CCC(OC2c3ccccc3CCn3cc(C(C)(C)c4ccccc4)nc32)CC1 (stereo not shown) [Example 207, 2-(1-methyl-1-phenyl-ethyl)-4-(1-methylpiperidin-4-yloxy)-9,10-dihydro-4H-3,10a-diaza-benzo[f]azulene] | < 1 µM
CNc1ccc(-c2cn3c(n2)C(OC2CCN(C)CC2)c2ccccc2CC3)cc1 (stereo not shown) [Example 100, methyl-{4-[4-(1-methylpiperidin-4-yloxy)-9,10-dihydro-4H-3,10a-diaza-benzo[f]azulen-2-yl]-phenyl}-amine oxalate] | < 1 µM
CN1CCC(OC2c3ccccc3CCn3cc(C=Cc4cccs4)nc32)CC1 (stereo not shown) [Example 111, 4-(1-methylpiperidin-4-yloxy)-2-(2-thiophen-2-ylvinyl)-9,10-dihydro-4H-3,10a-diaza-benzo[f]azulene] | < 0.03 µM
CN1CCC(OC2c3ccccc3CCn3c2nc(-c2ccccc2Cl)c3C#N)CC1 (stereo not shown) [Example 272, 2-(2-chlorophenyl)-4-(1-methyl-piperidin-4-yloxy)-9,10-dihydro-4H-3,10a-diaza-benzo[f]azulene-1-carbonitrile oxalate] | < 0.03 µM
CN1CCC(OC2c3ccccc3CCn3cc(-c4ccc(Cl)cc4Cl)nc32)CC1 (stereo not shown) [Example 71, 2-(2,4-dichlorophenyl)-4-(1-methylpiperidin-4-yloxy)-9,10-dihydro-4H-3,10a-diaza-benzo[f]azulene oxalate] | < 0.03 µM
CN1CCC(OC2c3ccccc3CCn3cc(-c4ccccn4)nc32)CC1 (stereo not shown) [Example 23, 4-(1-methylpiperidin-4-yloxy)-2-pyridin-2-yl-9,10-dihydro-4H-3,10a-diaza-benzo[f]azulene] | < 1 µM
CN1CCC(OC2c3ccccc3CCn3cc(-c4ccco4)nc32)CC1 (stereo not shown) [Example 24, 2-furan-2-yl-4-(1-methylpiperidin-4-yloxy)-9,10-dihydro-4H-3,10a-diaza-benzo[f]azulene] | < 0.3 µM
CN1CCC(OC2c3ccccc3CCn3cc(-c4nccs4)nc32)CC1 (stereo not shown) [Example 66, 4-(1-methylpiperidin-4-yloxy)-2-thiazol-2-yl-9,10-dihydro-4H-3,10a-diaza-benzo[f]azulene oxalate] | < 0.3 µM
Cc1c(-c2ccc(SCCNC(=N)N)cc2)nc2n1CCc1ccccc1C2OC1CCN(C)CC1 (stereo not shown) [Example 211, N-(2-{4-[1-methyl-4-(1-methylpiperidin-4-yloxy)-9,10-dihydro-4H-3,10a-diaza-benzo[f]azulen-2-yl]-phenylsulfanyl}-ethyl)-guanidine] | < 0.03 µM
CN1CCC(OC2c3ccccc3CCn3cc(-c4ccccc4[N+](=O)[O-])nc32)CC1 (stereo not shown) [Example 190, 4-(1-methylpiperidin-4-yloxy)-2-(2-nitrophenyl)-9,10-dihydro-4H-3,10a-diaza-benzo[f]azulene] | < 0.3 µM
Cc1ccccc1-c1cn2c(n1)C(OC1CCN(C)CC1)c1ccccc1CC2 (stereo not shown) [Example 8, 4-(1-methyl-piperidin-4-yloxy)-2-o-tolyl-9,10-dihydro-4H-3,10a-diaza-benzo[f]azulene] | < 0.3 µM
Cc1ccc(-c2cn3c(n2)C(OC2CCN(C)CC2)c2ccccc2CC3)cn1 (stereo not shown) [Example 39, 4-(1-methylpiperidin-4-yloxy)-2-(6-methylpyridin-3-yl)-9,10-dihydro-4H-3,10a-diaza-benzo[f]azulene oxalate] | < 1 µM
CN(C)CCOc1ccc(-c2cn3c(n2)C(OC2CCN(C)CC2)c2ccccc2CC3)cc1 (stereo not shown) [Example 180, dimethyl-(2-{4-[4-(1-methylpiperidin-4-yloxy)-9,10-dihydro-4H-3,10a-diaza-benzo[f]azulen-2-yl]-phenoxy}-ethyl)-amine] | < 0.3 µM
CN1CCC(OC2c3ccccc3CCn3cc(-c4ccc(CCOC(=O)NC(C)(C)C)cc4)nc32)CC1 (stereo not shown) [Example 200, tert-butyl-carbamic acid 2-{4-[4-(1-methylpiperidin-4-yloxy)-9,10-dihydro-4H-3,10a-diaza-benzo[f]azulen-2-yl]-phenyl}-ethyl ester] | < 0.3 µM
CN1CCC(OC2c3ccccc3CCn3cc(-c4ccc(N(C)C(=O)C(C)(C)C)cc4)nc32)CC1 (stereo not shown) [Example 101, 2,2,N-trimethyl-N-{4-[4-(1-methylpiperidin-4-yloxy)-9,10-dihydro-4H-3,10a-diaza-benzo[f]azulen-2-yl]-phenyl}-propionamide oxalate] | < 0.3 µM
CN1CCC(OC2c3ccccc3CCn3cc(SCc4ccco4)nc32)CC1 (stereo not shown) [Example 85, 2-(furan-2-ylmethylsulfanyl)-4-(1-methylpiperidin-4-yloxy)-9,10-dihydro-4H-3,10a-diaza-benzo[f]azulene oxalate] | < 0.3 µM
Cc1c(-c2ccc(C(=O)N3CCC(O)CC3)cc2)nc2n1CCc1ccccc1C2OC1CCN(C)CC1 (stereo not shown) [Example 220, (4-hydroxypiperidin-1-yl)-{4-[1-methyl-4-(1-methylpiperidin-4-yloxy)-9,10-dihydro-4H-3,10a-diaza-benzo[f]azulen-2-yl]-phenyl}-methanone] | < 0.3 µM
CN1CCC(OC2c3ccccc3CCn3cc(C(C)(C)c4ccc(Cl)cc4)nc32)CC1 (stereo not shown) [Example 117, 2-[1-(4-chlorophenyl)-1-methyl-ethyl]-4-(1-methylpiperidin-4-yloxy)-9,10-dihydro-4H-3,10a-diaza-benzo[f]azulene oxalate] | < 0.3 µM
Cc1c(-c2ccc(SCCNC(=O)OC(C)(C)C)cc2)nc2n1CCc1ccccc1C2OC1CCN(C)CC1 (stereo not shown) [Example 160, (2-{4-[1-methyl-4-(1-methylpiperidin-4-yloxy)-9,10-dihydro-4H-3,10a-diaza-benzo[f]azulen-2-yl]-phenylsulfanyl}-ethyl)-carbamic acid tert-butyl ester oxalate] | < 0.03 µM
CCCc1nc2n(c1-c1ccccc1)CCc1ccccc1C2OC1CCN(C)CC1 (stereo not shown) [Example 246, 4-(1-methyl-piperidin-4-yloxy)-1-phenyl-2-propyl-9,10-dihydro-4H-3,10a-diaza-benzo[f]azulene] | < 0.3 µM
Cc1c(-c2ccc(NC(=O)OC(C)(C)C(Cl)(Cl)Cl)cc2)nc2n1CCc1ccccc1C2OC1CCN(C)CC1 (stereo not shown) [Example 175, {4-[1-methyl-4-(1-methylpiperidin-4-yloxy)-9,10-dihydro-4H-3,10a-diaza-benzo[f]azulen-2-yl]-phenyl}-carbamic acid 2,2,2-trichloro-1,1-dimethyl-ethyl ester] | < 0.03 µM
